In brackets after ≈: the same amount, converted by molar mass. Entries after “also recorded” stand apart in the source; their conditions may differ. Where a name gives a salt, the structure may show the parent alone.
Assays:
male fertility [1] = assay: Effect on fertility in male mice; assay type: in vivo, mouse (BDF1)
Method: The compounds of the invention are also effective in reducing or inhibiting male fertility, wherein administration of a compound of the invention to a male mammal is effective to reduce the potency of the male's semen, thereby reducing or blocking fertilization. Triptolide succinate (YM-262) was tested for inhibition of fertility in male BDF1 mice, according to protocols described in Example 15. The compound was administered intraperitoneally (IP) in a saline solution, using a cycle of daily administration for 5 days followed by a two day cessation of treatment. Dose levels were 0.04 or 0.13 mg/kg/day. The cycle was repeated for 5 weeks before evaluation of physiological effects (testis weight) and reproductive performance.
The effect of the compound on fertility was tested with groups of five male mice treated according to the same schedule. Each male was housed with two females starting on day 32, after termination of YM-262 treatment.
Triptolide succinate (YM-262) was tested for fertility control in male BDF1 mice, using a cycle of daily administration for 5 days followed by a two day cessation of treatment. The cycle was repeated for 5 weeks, with dosing on days 0-4, 7-11, 14-18, 21-25 and 28-32 before evaluation of physiological effects and reproductive performance.
A dosing solution of YM-262 was prepared once a week from a stock solution in saline at 1.0 mg/ml and stored at 4° C. […]

male fertility [2] = assay: Effect on fertility in male mice; assay type: in vivo, mouse (BDF1); details: for delay of time from cohabitation to birth / increase in time from cohabitation to birth: vs control
[3] = Cytotoxicity by MTT reduction reported with the MLR assay (Table II); assay type: cell-based; details: cytotoxic when toxicity greater than 25%
Method: Potential cytotoxicity of the test samples was assessed by the measurement of their effect on the reduction of MTT (3-[4,5-Dimethylthiazole-2-yl]-2,5-diphenyltetrazolium bromide) by cultured cells. MTT, a yellow-colored compound, is reduced by mitochondrial enzymes to form the purple crystalline reduction product formazane, providing an index of cellular respiration on viable cells as well as a sensitive assay for cytotoxicity (Mossmann, 1983).
The cytotoxicity was assessed in cultured human PBMC and mouse thymocytes. A stock solution of MTT (Sigma) at 5 mg/ml in phosphate buffered saline, pH 7.4, was prepared and stored in the dark at 4° C. PBMCs or thymocytes were cultured with various concentrations of test samples in flatbottom 96-well tissue culture plates (Costar) under the same conditions as those described above, but the stimulants (X-35 or IL-1+PHA) were replaced by appropriate medium. Untreated cells with medium alone and without the test samples were used as controls. After incubation for 21 hours, 25 μl of MTT solution was added to each well. After an additional three hours of incubation, the experiment was terminated by addition of a solution of 10% sodium dodecyl sulfate in 0.01 N HCl. Following overnight incubation at 37° C. to solubilize the formazane crystals, optical density was determined at 570-650 nm in microplate reader. […]

[4] = Stability in water (D2O) by 1H NMR; assay type: physicochemical; details: room temperature, Succinate Sodium Salt
Method: Sodium triptolide succinate, designated YM-274, was dissolved in D2 O, and the aqueous solution was stored at room temperature.
A solution of sodium triptolide succinate (YM-274) in D2 O was prepared at a concentration of 3 mg/ml and stored at room temperature. The solution was analyzed by ^1 H NMR at intervals of 1, 3, 5, 15, 45, 90, 180 minutes; 1, 7, 14 days; and 1, 2, 3, and 5 months.

[5] = 0.03 mg/kg/day (so in the source) i.p.
[6] = 0.1 mg/kg/day (so in the source) i.p.

For CC(C)C12OC1C1OC13C1(C)CCC4=C(COC4=O)C1CC1OC13C2OC(=O)CCC(=O)O (stereo not drawn) [YM-262, Triptolide Succinate], which “delay of recovery of fertility after termination of therapy” value (male fertility [1]; 0.13 mg/kg/day i.p. over 32 days) is on record?
Its value is 21 days.

What about the “reversibility of antifertility effect” value (male fertility [1]; after cessation of administration) of the same compound?
Its value is “the antifertility effect was reversible; also recorded: the control of fertility was reversible”.

What about the “time from beginning of cohabitation to birth of litters” value (male fertility [2]; [5]) of the same compound?
Its value is 28 days.

And the “delay of time from cohabitation to birth” value (male fertility [2]; [5])?
Its value is 17%.

And the “period of unproductive mating” value (male fertility [2]; 0.04 mg/kg/day i.p.)?
The value was “approximately four-day period of unproductive mating”.

What about the “time from beginning of cohabitation to birth of litters” value (male fertility [2]; 0.04 mg/kg/day i.p.) of the same compound?
The value was 28 days.

What about the “delay of time from cohabitation to birth” value (male fertility [2]; 0.04 mg/kg/day i.p.) of the same compound?
Its value is 17%.

What about the “time from cohabitation to birth” value (male fertility [2]; [6]) of the same compound?
Its value is 45 days.

What about the “delay of recovery of fertility after termination of therapy” value (male fertility [2]; 0.1 mg/kg/day (so in the source) i.p. over 32 days) of the same compound?
The value was 21 days.

What about the “increase in time from cohabitation to birth” value (male fertility [2]; [6]) of the same compound?
Its value is 88%.

And the “time from cohabitation to birth” value (male fertility [2]; 0.13 mg/kg/day i.p.)?
The value was 45 days.

And the “increase in time from cohabitation to birth” value (male fertility [2]; 0.13 mg/kg/day i.p.)?
Its value is 88%.

Which CC50 at 24 h [3] does the source give for CC(C)[C@]12O[C@H]1[C@@H]1O[C@]13[C@]1(O[C@H]1C[C@H]1C4=C(CC[C@@]13C)C(=O)OC4)[C@@H]2O [Triptolide, triptolide, reference compound] here?
Its CC50 at 24 h is 0.0133 µg/mL (≈ 0.0369 µM).

What does the source list for CC(C)C12OC1C1OC13C1(C)CCC4=C(COC4=O)C1CC1OC13C2OC(=O)CCC(=O)O (stereo not drawn) [YM-274, Triptolide Succinate Sodium Salt]?
stability in aqueous solution, three months ([4]; 3 months): no appreciable change in the NMR spectrum; also recorded: unchanged after three months in solution; stability in aqueous solution, five months ([4]; 5 months): Some decomposition was apparent; also recorded: some decomposition was observed

— patent US5962516A, “Immunosuppressive compounds and methods” (priority 1999, dated 1999)
